# Reference: ChEMBL document CHEMBL6103611, “Structure and Dynamics of Macrophage Infectivity Potentiator Proteins from Pathogenic Bacteria and Protozoans Bound to Fluorinated Pipecolic Acid Inhibitors” (J Med Chem, 2025)
# Active and inactive are the calls of the source. No cut-off for these calls is given here.
# Columns and labels:
# [1] = molecular target: Outer membrane protein MIP (Legionella pneumophila) (UniProt Q70YI1)
# [2] = molecular target: T1, Macrophage infectivity potentiator (Trypanosoma cruzi) (UniProt Q09734)
# T1 sequence (whole entry): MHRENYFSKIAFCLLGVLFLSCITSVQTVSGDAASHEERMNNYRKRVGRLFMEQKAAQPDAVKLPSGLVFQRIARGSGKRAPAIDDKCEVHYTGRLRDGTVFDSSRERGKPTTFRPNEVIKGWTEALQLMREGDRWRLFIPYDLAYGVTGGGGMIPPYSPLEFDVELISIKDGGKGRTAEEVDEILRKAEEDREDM
# [3] = molecular target: Outer membrane protein MIP (Legionella pneumophila) (UniProt Q70YI1); remark: listed apart in the source
# [4] = molecular target: Outer membrane protein MIP (Legionella pneumophila) (UniProt Q70YI1); remark: listed apart in the source
# [5] = molecular target: T1, Macrophage infectivity potentiator (Trypanosoma cruzi); remark: listed apart in the source
# [6] = molecular target: Outer membrane protein MIP (Legionella pneumophila) (UniProt Q70YI1); remark: listed apart in the source
# [7] = molecular target: T2, Peptidyl-prolyl cis-trans isomerase (Burkholderia pseudomallei (strain K96243)) (UniProt Q63J95)
# T2 sequence (whole entry): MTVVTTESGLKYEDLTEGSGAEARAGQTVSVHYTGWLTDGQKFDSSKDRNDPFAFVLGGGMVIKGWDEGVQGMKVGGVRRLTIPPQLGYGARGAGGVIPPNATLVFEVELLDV
# [8] = molecular target: Outer membrane protein MIP (Legionella pneumophila) (UniProt Q70YI1); remark: listed apart in the source
# [9] = molecular target: Outer membrane protein MIP (Legionella pneumophila) (UniProt Q70YI1); remark: listed apart in the source
# [10] = molecular target: Outer membrane protein MIP (Legionella pneumophila) (UniProt Q70YI1); remark: listed apart in the source
# [11] = molecular target: T2, Peptidyl-prolyl cis-trans isomerase (Burkholderia pseudomallei (strain K96243)); remark: listed apart in the source
# [12] = molecular target: T2, Peptidyl-prolyl cis-trans isomerase (Burkholderia pseudomallei (strain K96243)); remark: listed apart in the source
# [13] = molecular target: Outer membrane protein MIP (Legionella pneumophila) (UniProt Q70YI1); remark: listed apart in the source
# [14] = molecular target: T1, Macrophage infectivity potentiator (Trypanosoma cruzi); remark: listed apart in the source
Structure (SMILES),Time [1],Activity [2],Activity [3],Time [4],Time [5],Activity [6],Activity [7],Activity [8],Activity [9],Activity [10],Activity [11],Time [12],Activity [13],Activity [14]
CC(C)C[C@H](NC(=O)[C@@H]1CCCCN1S(=O)(=O)Cc1ccc(F)cc1)C(=O)NCc1cccnc1,8.8 nanoseconds,Active,Active,27.9 nanoseconds,13.8 nanoseconds,Active,Active,Active,Active,Active,Active,7.6 nanoseconds,Active,–
O=C(NCc1cccnc1)[C@H](Cc1ccc(F)cc1)NC(=O)[C@@H]1CCCCN1S(=O)(=O)Cc1ccc(F)cc1,9.7 nanoseconds,Active,Active,25.4 nanoseconds,14.5 nanoseconds,Active,–,Active,Active,Active,Active,7.8 nanoseconds,Active,Active
